Measured values reported in patent publication US20230041996A1, “CALCIUM-SENSING RECEPTOR AGONIST COMPOUND AND APPLICATION THEREOF” (BEIJING TUO JIE BIOPHARMACEUTICAL CO. LTD., priority 2019, published 2023).
Square brackets hold non-standard residues; d marks the D form. Peptide text beside a SMILES is read from it. * marks the point of attachment. Cys(free,S-linked) = N[C@@H](CS*)C(=O)O; dPhe(2-Cl) = N[C@H](Cc1ccccc1Cl)C(=O)O; d(hPhe) = N[C@H](CCc1ccccc1)C(=O)O; dCha = N[C@H](CC1CCCCC1)C(=O)O; dChg = N[C@@H](C(=O)O)C1CCCCC1; dPhg = N[C@@H](C(=O)O)c1ccccc1; dTle = CC(C)(C)[C@@H](N)C(=O)O

Legend:
[1] = tested on: rat peritoneal mast cells; assay: In vitro histamine release in rat peritoneal mast cells (histamine ELISA); format: cell-based; settings: test compound final concentration 10 μM, 15 min at 37° C., relative to PBS buffer (1.00)
Experimental: To evaluate the in vitro histamine release levels induced by some of the test example compounds, rat peritoneal mast cells were collected by lavaging rat peritoneum with a lavage buffer (cold HBSS+25 mM HEPES containing heparin 5 U/mL, pH 7.4). After collection, the cells were centrifuged, and the lavage buffer was discarded. The cells were resuspended and washed twice with a stimulation buffer (HBSS+25 mM HEPES+1 mM CaCl2), pH 7.4). The cells were plated at a density of 10^5 cell/well (200 μL/well) and incubated at 37° C. for 15 min with positive control compound 48/80 (final concentration: 4 μg/mL), test example compounds (final concentration: 10 μM) or vehicle control. The cells were centrifuged, and cell supernatant was collected and tested for histamine concentration according to LDN Histamine ELISA kit (BAE-1000) instructions.

[2] = target: T1, human calcium-sensing receptor (CaSR) (Homo sapiens, UniProt P41180); assay: Agonist activity on human calcium-sensing receptor (IP-One HTRF in stably transfected HEK293/CaSR cells); format: cell-based; settings: HEK293/CaSR cells, IP-One production, 60 min at 37° C., CaCl2 1.2 mM; read-out: EC50 for calcium-sensing receptor
T1 construct: host or cells: HEK293
T1 sequence (P41180 20-1078): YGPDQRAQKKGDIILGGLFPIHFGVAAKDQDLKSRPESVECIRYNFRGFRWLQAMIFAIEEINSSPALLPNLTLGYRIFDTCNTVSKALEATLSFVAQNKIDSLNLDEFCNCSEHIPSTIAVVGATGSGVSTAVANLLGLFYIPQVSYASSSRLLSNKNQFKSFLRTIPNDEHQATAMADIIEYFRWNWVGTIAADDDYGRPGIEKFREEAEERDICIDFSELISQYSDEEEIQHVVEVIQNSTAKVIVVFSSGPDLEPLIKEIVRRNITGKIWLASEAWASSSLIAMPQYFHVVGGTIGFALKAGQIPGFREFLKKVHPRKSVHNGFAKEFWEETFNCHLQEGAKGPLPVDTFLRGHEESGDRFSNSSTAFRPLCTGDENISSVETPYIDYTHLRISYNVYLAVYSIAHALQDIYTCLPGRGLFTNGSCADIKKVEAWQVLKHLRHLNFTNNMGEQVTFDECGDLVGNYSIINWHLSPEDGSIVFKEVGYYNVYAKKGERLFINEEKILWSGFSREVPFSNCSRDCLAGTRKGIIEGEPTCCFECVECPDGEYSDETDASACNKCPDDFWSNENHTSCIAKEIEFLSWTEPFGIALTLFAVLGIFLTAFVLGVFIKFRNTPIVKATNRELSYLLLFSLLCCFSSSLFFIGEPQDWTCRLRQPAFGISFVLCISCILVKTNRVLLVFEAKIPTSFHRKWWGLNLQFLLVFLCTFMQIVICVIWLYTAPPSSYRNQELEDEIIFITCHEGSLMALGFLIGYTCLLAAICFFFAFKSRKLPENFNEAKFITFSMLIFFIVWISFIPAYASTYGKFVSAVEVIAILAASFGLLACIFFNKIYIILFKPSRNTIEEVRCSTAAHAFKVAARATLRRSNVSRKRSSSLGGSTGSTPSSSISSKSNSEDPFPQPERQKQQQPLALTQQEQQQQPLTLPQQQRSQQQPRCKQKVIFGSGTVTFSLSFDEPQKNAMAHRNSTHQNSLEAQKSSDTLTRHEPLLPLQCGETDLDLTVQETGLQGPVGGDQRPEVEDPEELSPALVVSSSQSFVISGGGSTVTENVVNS
Experimental: 3.1.1 Objective: The test example is intended to measure the agonist activity of compounds 1-38 on the human calcium-sensing receptor (CaSR).
Stably transfected HEK293/CaSR cells (source: Pharmaron) were cultured in a complete medium (composition: DMEM, high glucose+10% FBS+2 mM GlutaMAX+1× Penicillin-Streptomycin+200 μg/mL Hygromycin B) and incubated at 37° C./5% CO2 till 70%-90% cell confluence. The cells were digested with TrypLE, inoculated into 384-well cell culture plates, and cultured overnight at 37° C./5% CO2. After buffer exchange, stimulation buffer (HEPES 10 mM, MgCl2 0.5 mM, KCl 4.2 mM, NaCl 146 mM, glucose 5.5 mM, LiCl 50 mM, CaCl2 1.2 mM) and various concentrations of the test example compounds were added and incubated at 37° C. for 60 min. Production of IP-One in cells was detected according to the procedures in the Cisbio IP-One Tb kit instructions. The EC50 values of various test example compounds in influencing human calcium-sensing receptor was calculated by software after the raw data of the example compounds were collected, so as to evaluate the agonist activity of the example compounds on human calcium-sensing receptor.
HTRF signal was read by an EnVision detector with an excitation wavelength of 320 nm and emission wavelengths of 620 nm and 665 nm. The signal ratio (665 nm/620 nm×10,000) was calculated and fitted non-linearly to the sample concentration in GraphPad Prism 6 using a four-parameter equation to give EC50 values of the test example compounds 1-38.

Compound | Relative fold of histamine release in vitro [1] | EC50 [2]
CC(=O)N[C@H](CSSC[C@H](N)C(=O)O)C(=O)N[C@@H](C(=O)N[C@H](CCCNC(=N)N)C(=O)N[C@H](CCCNC(=N)N)C(=O)N[C@H](CCCNC(=N)N)C(=O)N[C@H](C)C(=O)N[C@H](CCCNC(=N)N)C(N)=O)c1ccccc1 [Compound 1, Ac-c(C)-(D-Phg)-r-r-r-a-r-NH2] (Ac-[dC](Cys(free,S-linked))[dPhg][dR][dR][dR][dA][dR]-NH2) | 1.50 | 15.7 µM
CC(=O)N[C@H](CSSC[C@H](N)C(=O)O)C(=O)N[C@H](Cc1ccccc1Cl)C(=O)N[C@H](CCCNC(=N)N)C(=O)N[C@H](CCCNC(=N)N)C(=O)N[C@H](CCCNC(=N)N)C(=O)N[C@H](C)C(=O)N[C@H](CCCNC(=N)N)C(N)=O [Compound 2, Ac-c(C)-[D-Phe(2-Cl)]-r-r-r-a-r-NH2] (Ac-[dC](Cys(free,S-linked))[dPhe(2-Cl)][dR][dR][dR][dA][dR]-NH2) | 4.96 | 6.76 µM
CC(=O)N[C@H](CSSC[C@H](N)C(=O)O)C(=O)N[C@H](Cc1ccc(O)cc1)C(=O)N[C@H](CCCNC(=N)N)C(=O)N[C@H](CCCNC(=N)N)C(=O)N[C@H](CCCNC(=N)N)C(=O)N[C@H](C)C(=O)N[C@H](CCCNC(=N)N)C(N)=O [Compound 4, Ac-c(C)-(D-Tyr)-r-r-r-a-r-NH2] (Ac-[dC](Cys(free,S-linked))[dY][dR][dR][dR][dA][dR]-NH2) | 3.94 | 6.92 µM
CC(=O)N[C@H](CSSC[C@H](N)C(=O)O)C(=O)N[C@H](Cc1c[nH]c2ccccc12)C(=O)N[C@H](CCCNC(=N)N)C(=O)N[C@H](CCCNC(=N)N)C(=O)N[C@H](CCCNC(=N)N)C(=O)N[C@H](C)C(=O)N[C@H](CCCNC(=N)N)C(N)=O [Compound 5, Ac-c(C)-(D-Trp)-r-r-r-a-r-NH2] (Ac-[dC](Cys(free,S-linked))[dW][dR][dR][dR][dA][dR]-NH2) | 4.13 | 1.14 µM
CC(=O)N[C@H](CSSC[C@H](N)C(=O)O)C(=O)N[C@H](CO)C(=O)N[C@H](CCCNC(=N)N)C(=O)N[C@H](CCCNC(=N)N)C(=O)N[C@H](CCCNC(=N)N)C(=O)N[C@H](CO)C(=O)N[C@H](CCCNC(=N)N)C(N)=O [Compound 6, Ac-c(C)-s-r-r-r-s-r-NH2] (Ac-[dC](Cys(free,S-linked))[dS][dR][dR][dR][dS][dR]-NH2) | 1.65 | 11.6 µM
CC(=O)N[C@H](CSSC[C@H](N)C(=O)O)C(=O)N[C@H](Cc1c[nH]cn1)C(=O)N[C@H](CCCNC(=N)N)C(=O)N[C@H](CCCNC(=N)N)C(=O)N[C@H](CCCNC(=N)N)C(=O)NCC(=O)N[C@H](CCCNC(=N)N)C(N)=O [Compound 7, Ac-c(C)-h-r-r-r-G-r-NH2] (Ac-[dC](Cys(free,S-linked))[dH][dR][dR][dR]G[dR]-NH2) | 2.24 | 18.6 µM
CC(=O)N[C@H](CSSC[C@H](N)C(=O)O)C(=O)N[C@H](CO)C(=O)N[C@H](CCCNC(=N)N)C(=O)N[C@H](CCCNC(=N)N)C(=O)N[C@H](CCCNC(=N)N)C(=O)NCC(=O)N[C@H](CCCNC(=N)N)C(N)=O [Compound 8, Ac-c(C)-s-r-r-r-G-r-NH2] (Ac-[dC](Cys(free,S-linked))[dS][dR][dR][dR]G[dR]-NH2) | 1.50 | 14.3 µM
CC(=O)N[C@H](CSSC[C@H](N)C(=O)O)C(=O)N[C@H](Cc1c[nH]cn1)C(=O)N[C@H](CCCNC(=N)N)C(=O)N[C@H](CCCNC(=N)N)C(=O)N[C@H](CCCNC(=N)N)C(=O)N[C@H](CO)C(=O)N[C@H](CCCNC(=N)N)C(N)=O [Compound 10, Ac-c(C)-h-r-r-r-s-r-NH2] (Ac-[dC](Cys(free,S-linked))[dH][dR][dR][dR][dS][dR]-NH2) | 3.66 | 3.52 µM
CC(=O)N[C@H](CSSC[C@H](N)C(=O)O)C(=O)N[C@H](CCCNC(=N)N)C(=O)N[C@H](CCCNC(=N)N)C(=O)N[C@@H](C(=O)N[C@H](CCCNC(=N)N)C(=O)N[C@H](C)C(=O)N[C@H](CCCNC(=N)N)C(N)=O)c1ccccc1 [Compound 11, Ac-c(C)-r-r-(D-Phg)-r-a-r-NH2] (Ac-[dC](Cys(free,S-linked))[dR][dR][dPhg][dR][dA][dR]-NH2) | 1.11 | 15.7 µM
CC(=O)N[C@H](CSSC[C@H](N)C(=O)O)C(=O)N[C@H](CCCNC(=N)N)C(=O)N[C@H](CCCNC(=N)N)C(=O)N[C@H](CCc1ccccc1)C(=O)N[C@H](CCCNC(=N)N)C(=O)N[C@H](C)C(=O)N[C@H](CCCNC(=N)N)C(N)=O [Compound 16, Ac-c(C)-r-r-(D-hPhe)-r-a-r-NH2] (Ac-[dC](Cys(free,S-linked))[dR][dR][d(hPhe)][dR][dA][dR]-NH2) | 2.94 | 2.37 µM
CC(=O)N[C@H](CSSC[C@H](N)C(=O)O)C(=O)N[C@H](CCCNC(=N)N)C(=O)N[C@H](CCCNC(=N)N)C(=O)N[C@@H](C(=O)N[C@H](CCCNC(=N)N)C(=O)N[C@H](C)C(=O)N[C@H](CCCNC(=N)N)C(N)=O)C(C)(C)C [Compound 18, Ac-c(C)-r-r-(D-Tle)-r-a-r-NH2] (Ac-[dC](Cys(free,S-linked))[dR][dR][dTle][dR][dA][dR]-NH2) | 1.24 | 13.4 µM
CC(=O)N[C@H](CSSC[C@H](N)C(=O)O)C(=O)N[C@H](CCCNC(=N)N)C(=O)N[C@H](CCCNC(=N)N)C(=O)N[C@@H](C(=O)N[C@H](CCCNC(=N)N)C(=O)N[C@H](C)C(=O)N[C@H](CCCNC(=N)N)C(N)=O)C1CCCCC1 [Compound 20, Ac-c(C)-r-r-(D-Chg)-r-a-r-NH2] (Ac-[dC](Cys(free,S-linked))[dR][dR][dChg][dR][dA][dR]-NH2) | 2.33 | 7.53 µM
CC(=O)N[C@H](CSSC[C@H](N)C(=O)O)C(=O)N[C@H](CCCNC(=N)N)C(=O)N[C@H](CCCNC(=N)N)C(=O)N[C@H](CC1CCCCC1)C(=O)N[C@H](CCCNC(=N)N)C(=O)N[C@H](C)C(=O)N[C@H](CCCNC(=N)N)C(N)=O [Compound 21, Ac-c(C)-r-r-(D-Cha)-r-a-r-NH2] (Ac-[dC](Cys(free,S-linked))[dR][dR][dCha][dR][dA][dR]-NH2) | 3.42 | 5.59 µM
CC(=O)N[C@H](CSSC[C@H](N)C(=O)O)C(=O)N[C@H](CCCNC(=N)N)C(=O)N[C@H](CCCNC(=N)N)C(=O)N[C@H](CO)C(=O)N[C@H](CCCNC(=N)N)C(=O)NCC(=O)N[C@H](CCCNC(=N)N)C(N)=O [Compound 22, Ac-c(C)-r-r-s-r-G-r-NH2] (Ac-[dC](Cys(free,S-linked))[dR][dR][dS][dR]G[dR]-NH2) | 1.63 | 15.4 µM
